# Measurements published in paper PMC7586797, “Phase 1 Study to Evaluate the Effect of the Investigational Anticancer Agent Sapanisertib on the QTc Interval in Patients With Advanced Solid Tumors” (Clinical Pharmacology in Drug Development, 2020).
# Read-outs that look alike come from different tables or passages of the source.
# Columns and labels:
# [1] = cited from earlier work; for Geometric Mean Cmax: fasted, immediate release capsules, advanced solid tumors, ref data on file 14
# CYP enzymes = details: in vitro, clinically relevant concentrations; cited from earlier work
# [2] = tested on: patients with advanced solid tumors; experiment: Safety: adverse events (NCI CTCAE v4.03); type: in vivo, human
# Description: On cycle 1 day 1, triplicate ECGs and plasma samples for PK were collected from patients ≤15 minutes prior to dosing and at 15 minutes; 30 minutes; and 1‐, 1.5‐, 2‐, 2.5‐, 3‐, 4‐, 6‐, 8‐, and 10‐hour time points after receiving a single oral dose of 40‐mg sapanisertib. The Holter recorders and ECG leads were removed from patients after collection of the 10‐hour time point ECG on day 1, following which patients were furloughed from site. Additional collections of ECGs and plasma samples for PK were conducted at 24 (cycle 1 day 2) and 48 hours (cycle 1 day 3) after dosing. After the first week, that is, cycle 1 day 8, patients had the option to continue to receive treatment with sapanisertib at a dose of 30 mg once weekly in continuous 28‐day cycles until disease progression, unacceptable toxicity, withdrawal of consent, or completion of the 12‐month maximum study duration.
# PK parameters were calculated by noncompartmental methods using WinNonLin Professional version 6.1 (Certara, Princeton, New Jersey). The PK analysis population was defined as all patients who received at least 1 dose of sapanisertib and had sufficient concentration‐time data to calculate ≥1 PK parameters. The safety population included all patients who received ≥1 dose of sapanisertib, according to the National Cancer Institute Common Terminology Criteria for Adverse Events, version 4.03.
structure (smiles),measurement,setting,value
CC(C)n1nc(-c2ccc3oc(N)nc3c2)c2c(N)ncnc21 [sapanisertib],Geometric Mean Cmax,[1]; 4 mg once daily,36.9 ng/mL ^a
same,Geometric Mean Cmax,[1]; 30 mg once weekly,235 ng/mL ^b
same,Anticipated free maximum plasma concentration (Cmax),"[1]; 40 mg, cancer patients",300 nM
same,Cmax,"[1]; 40 mg, cancer patients, read-out: Total Cmax",960 nM
same,Dose linearity of pharmacokinetics,[1]; 2- to 40-mg dose range,dose‐linear pharmacokinetics
same,Accumulation ratio,[1]; once-daily administration,~1
same,Accumulation,[1]; once-weekly administration,does not accumulate
same,Inhibition or induction of CYP enzymes,CYP enzymes,did not inhibit or induce CYP enzymes
same,Patients who died during the study,"[2]; N = 44, neither death considered related to study drug",Two
same,AE of special interest: asthenic conditions,"[2]; human, in vivo",61%
same,AE of special interest: hyperglycemia,"[2]; human, in vivo",18%
same,AE of special interest: mucosal inflammation,"[2]; human, in vivo",25%
same,AE of special interest: rash,"[2]; human, in vivo",20%
same,AE of special interest: renal insufficiency,"[2]; human, in vivo",5%
same,"Dehydration, grade ≥3","[2]; human, in vivo",5%
same,"Diarrhea, grade ≥3","[2]; human, in vivo",5%
same,"Fatigue, any grade","[2]; human, in vivo",61%
same,"Fatigue, grade ≥3","[2]; human, in vivo",16%
same,"Hyperglycemia, grade ≥3","[2]; human, in vivo",5%
same,"Nausea, any grade","[2]; human, in vivo",80%
same,Patients who experienced adverse events,"[2]; human, in vivo",98%
same,Patients with grade ≥3 AEs,"[2]; human, in vivo",59%
same,"Stomatitis, grade ≥3","[2]; human, in vivo",5%
same,"Vomiting, any grade","[2]; human, in vivo",57%
same,Patients who discontinued study due to AEs,[2]; in vivo,Four
